# What was measured:
# serotonin reuptake sites = target: T1, serotonin reuptake sites (Rattus norvegicus, UniProt P31652); assay: In vitro affinity for serotonin reuptake sites ([3H]-paroxetine binding); conditions: read-out: 5-HT reuptake binding pKi (converted)
# T1 construct: from tissue
# Protocol: In Vitro Affinity for Serotonin Reuptake Sites
# Affinity of the compounds for serotonin reuptake sites was determined using the receptor binding assay described by E. Habert et al.,: “Characterisation of [^3H]-paroxetine binding to rat cortical membranes”, Eur. J. Pharmacol., 118, 107-114, 1985.
# [1] = target: T2, Human dopamine D2,L receptors (Homo sapiens, UniProt P14416); assay: Inhibition of forskolin-induced [3H]-cAMP accumulation in CHO-K1 cells; type: cell-based; conditions: cloned human dopamine D2,L receptors; full agonist ε=1, full antagonist ε=0
# T2 construct: host or cells: CHO-K1
# T2 sequence (P14416 whole entry): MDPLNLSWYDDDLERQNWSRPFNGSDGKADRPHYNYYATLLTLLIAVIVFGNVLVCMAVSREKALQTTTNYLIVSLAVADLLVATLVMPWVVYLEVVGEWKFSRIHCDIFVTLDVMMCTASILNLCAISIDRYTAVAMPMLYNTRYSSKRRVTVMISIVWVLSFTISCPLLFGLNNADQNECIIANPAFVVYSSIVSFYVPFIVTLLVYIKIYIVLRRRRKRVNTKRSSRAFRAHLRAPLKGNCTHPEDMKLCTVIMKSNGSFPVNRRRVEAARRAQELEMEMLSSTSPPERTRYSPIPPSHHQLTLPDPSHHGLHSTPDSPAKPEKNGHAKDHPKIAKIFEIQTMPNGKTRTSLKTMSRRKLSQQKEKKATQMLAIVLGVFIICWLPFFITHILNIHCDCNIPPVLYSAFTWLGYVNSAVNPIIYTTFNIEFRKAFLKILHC
# Protocol: Inhibition of Forskolin-Induced [^3H]-cAMP Accumulation
# The in vitro functional activity at dopamine-D2 receptors, including the intrinsic activity (E) of the compounds of the invention was measured by their ability to inhibit forskolin-induced [^3H]-cAMP accumulation.
# Human dopamine D2,L receptors were cloned in fibroblast cell line CHO-K1′ cells and obtained from Dr. Grandy, Vollum Institute, Portland, Oreg., USA. CHO cells were grown in a Dulbecco's modified Eagle's medium (DMEM) culture medium, supplemented with 10% heat-inactivated fetal calf serum, 2 mM glutamine, 1 mM pyruvate, 5000 units/ml penicillin, 5000 μg/ml streptomycin and 200 μg/ml G-418 at 37° C. in 93% air/7% CO2. For incubation with test compounds, confluent cultures grown in 24 wells plates were used. Each condition or substance was routinely tested in quadruplicate. Cells were loaded with 1 μCi [^3H]-adenine in 0.5 ml medium/well. After 2 hours, cultures were washed with 0.5 ml PBS containing 1 mM of the phosphodiesterase inhibitor isobutylmethylxanthine (IBMX) and incubated for 20 min with 0.5 ml PBS containing 1 mM IBMX and forskolin with or without test compound. After aspiration the reaction was stopped with 1 ml trichloroacetic acid 5% (w/v). […] 0.8 ml Extract was passed over Dowex (50WX-4 200-400 mesh) and aluminumoxide columns, eluted with water and 0.1M imidazole (pH=7.5). Eluates were mixed with 7 ml Insta-gel and radioactivity was counted with a liquid scintillation counter. The conversion of [^3H]-ATP into [^3H]-cAMP was expressed as the ratio in percentage radioactivity in the cAMP fraction as compared to combined radioactivity in both cAMP and ATP fractions, and basal activity was subtracted to correct for spontaneous activity.
# Test compounds were obtained as 10 mM stock solutions in 100% DMSO, and diluted in PBS/IBMX to final concentrations. Typically, compounds were used in concentrations that ranged from 10^−10M to 10^−5M. From quadruplicate data counts, the mean was taken as an estimate for drug-induced, receptor-mediated effects at specified second messenger accumulation, expressed as percentage of control values (forskolin-stimulated cAMP accumulation, subtracted by basal activity). By using the non-linear curve-fitting program INPLOT or the Excel-add-in XL-Fit, mean values were plotted against drug concentration (in molar) and a sigmoid curve (four-parameter logistic curve) was constructed. The maximal forskolin-induced stimulated conversion is taken as maximum value and the maximal inhibition (usually at drug concentrations 10^−4 M or 10^−5 M) as minimum and these values were fixed during the fitting process. Thus, concentrations of the compound, causing 50% of the maximally obtained inhibition of forskolin-induced cAMP accumulation (EC50), are averaged over several experiments and presented as mean pEC50±SEM. Antagonist potency is assessed by co-incubating cells with a fixed agonist concentration and specified antagonist concentrations. Curve fitting procedures are identical to those used for estimating EC50 values. Thus IC50 values, i.e. the concentration that is able to achieve 50% of maximal antagonism that can be achieved by this compound. IC50 values are corrected using a Cheng-Prussoff equation, correcting it for agonist concentration and EC50 values that is obtained in the same experiment. Thus, Kb=IC50/(1+[agonist]/EC50, agonist). The corresponding pA2 value is −log (Kb). Concentration-response curve fitting allows estimation of pEC50 values and of maximal achievable effect (intrinsic activity or efficacy (ε). A full receptor agonist has ε=1, a full receptor antagonist has ε=0, and a partial receptor agonist has an intermediate intrinsic activity.
# T1 sequence (P31652 whole entry): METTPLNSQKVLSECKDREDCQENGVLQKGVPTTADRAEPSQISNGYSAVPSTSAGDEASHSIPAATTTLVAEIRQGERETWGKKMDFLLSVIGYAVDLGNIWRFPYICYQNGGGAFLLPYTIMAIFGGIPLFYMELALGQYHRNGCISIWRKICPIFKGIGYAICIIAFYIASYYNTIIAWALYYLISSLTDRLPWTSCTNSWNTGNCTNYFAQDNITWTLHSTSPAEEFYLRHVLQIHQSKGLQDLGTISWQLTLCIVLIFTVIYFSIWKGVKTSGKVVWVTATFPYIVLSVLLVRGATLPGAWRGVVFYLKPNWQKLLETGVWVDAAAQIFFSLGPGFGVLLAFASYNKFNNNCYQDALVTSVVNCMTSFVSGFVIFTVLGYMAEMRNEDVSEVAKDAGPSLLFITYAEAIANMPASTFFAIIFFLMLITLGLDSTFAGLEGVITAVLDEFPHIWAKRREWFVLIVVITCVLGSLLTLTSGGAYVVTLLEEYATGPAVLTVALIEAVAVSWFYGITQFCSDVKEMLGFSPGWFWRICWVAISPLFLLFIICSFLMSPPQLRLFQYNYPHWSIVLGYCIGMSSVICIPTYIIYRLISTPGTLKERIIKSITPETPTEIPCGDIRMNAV
SMILES,Ki (serotonin reuptake sites),Dopamine-D2 cAMP accum ε (intrinsic activity) [1],melting point
O=c1[nH]c2cccc(N3CCN(CCCc4csc5ccc(Cl)cc45)CC3)c2o1 [Compound 7],3.16 nM,0.39,211 to 213 °C
O=c1[nH]c2cccc(N3CCN(CCCc4csc5ccc(F)cc45)CC3)c2o1 [Compound 8],1.26 nM,0.10,193 to 195 °C
N#Cc1ccc2occ(CCCCN3CCN(c4cccc5[nH]c(=O)oc45)CC3)c2c1 [Compound 6],0.158 nM,0.85,180 to 182 °C
Cn1c(=O)oc2c(N3CCN(CCCCc4csc5ccc(C#N)cc45)CC3)cccc21 [Compound 94],3.16 nM,0.70,184 to 186 °C
O=c1[nH]c2cccc(N3CCN(CCCCn4ccc5ccc(F)cc54)CC3)c2o1 [Compound 16],0.794 nM,0.73,143 to 145 °C
Cn1c(=O)oc2c(N3CCN(CCC#Cc4ccc5ccc(F)cc5c4)CC3)cccc21 [Compound 135],2 nM,0.45,

# — patent publication US20060122189A1, “Phenylpiperazine derivatives with a combination of partial dopamine-D2 receptor agonism and serotonin reuptake inhibition” (priority 2004, published 2006)
